Results published in US4469795A, “Radioassay for monosialoglycosphingolipid (GM1) ganglioside concentration” (priority 1981, dated 1984).

System: iodotoxin binding to liver membranes
Set-up: species or system rat

Substance	inhibition of iodotoxin binding to liver membranes by the unlabelled enterotoxin	reversal of inhibition of iodotoxin binding to liver membranes	inhibition of liver membrane toxin binding	time until binding of iodotoxin to GM1 ganglioside is complete
cholera toxin	did not occur	greater than 92%	–	–
monosialoglycosphingolipid GM1 ganglioside	–	–	greater than 94%	thirty
